The values that follow come from ChEMBL document CHEMBL4482309, “Discovery of the first selective c5a2 receptor (c5l2/c5ar2) ligands” (2017).

The source made the active and inactive calls. No cut-off for these calls is given here.

Assay [1] concerns the target T1, C5a anaphylatoxin chemotactic receptor 1 (Homo sapiens) (UniProt P21730).
T1 sequence (whole entry): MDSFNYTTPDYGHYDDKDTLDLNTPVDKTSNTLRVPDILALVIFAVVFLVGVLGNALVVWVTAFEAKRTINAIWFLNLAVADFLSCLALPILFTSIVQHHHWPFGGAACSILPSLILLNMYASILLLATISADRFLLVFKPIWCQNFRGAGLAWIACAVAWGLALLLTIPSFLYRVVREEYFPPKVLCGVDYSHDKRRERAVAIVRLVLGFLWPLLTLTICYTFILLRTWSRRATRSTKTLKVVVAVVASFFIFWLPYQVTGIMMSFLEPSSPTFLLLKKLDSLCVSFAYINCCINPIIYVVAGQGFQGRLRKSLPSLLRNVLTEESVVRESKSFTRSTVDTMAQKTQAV
Briefly: Displacement of [125I]-C5a from C5a1 receptor (unknown origin) expressed in Flp-In CHO cell membranes incubated for 1 hr by microbeta scintillation counting assay. For orientation: Displacement assays read how much labelled ligand stays bound in the presence of the test substance.

In assay [2] the target is C5a anaphylatoxin chemotactic receptor 1/2 (Homo sapiens) (UniProt P21730+Q9P296). The assay can be described thus: Induction of C5a1-C5a2 heteromer formation (unknown origin) expressed in HEK293 cells at 100 uM by BRET assay. The assay is classed as cell-based. For orientation: BRET reads energy transfer from a luciferase to a nearby fluorophore.
The target of assay [3] is C5a anaphylatoxin chemotactic receptor 2 (Homo sapiens) (UniProt Q9P296). Briefly: Partial agonist activity at C5a2 receptor (unknown origin) expressed in HEK293 cells assessed as induction of beta-arrestin-2 recruitment incubated for 1 hr by BRET assay. The assay is classed as cell-based. In general terms: Activated receptors often draw arrestin, which recruitment assays turn into a signal.
Sequence of C5a anaphylatoxin chemotactic receptor 2 (Homo sapiens) (Q9P296 whole entry): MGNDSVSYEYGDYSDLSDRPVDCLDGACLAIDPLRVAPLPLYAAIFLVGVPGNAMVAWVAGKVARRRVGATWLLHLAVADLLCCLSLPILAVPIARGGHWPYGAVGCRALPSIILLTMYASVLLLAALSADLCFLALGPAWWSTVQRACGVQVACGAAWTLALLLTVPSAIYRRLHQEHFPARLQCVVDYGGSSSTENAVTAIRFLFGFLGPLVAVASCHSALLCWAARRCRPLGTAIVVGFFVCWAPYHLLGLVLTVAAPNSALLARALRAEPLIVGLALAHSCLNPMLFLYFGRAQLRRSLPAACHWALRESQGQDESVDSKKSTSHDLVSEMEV

The target of assay [4] is T1, C5a anaphylatoxin chemotactic receptor 1 (Homo sapiens). The assay can be described thus: Partial agonist activity at human C5a1 receptor assessed as induction of beta-arrestin-2 recruitment by DiscoverX Path Hunter kit based assay.
Assay [5] deals with T2, Mitogen-activated protein kinase; ERK1/ERK2 (Homo sapiens) (UniProt P27361+P28482). The assay can be described thus: Agonist activity at C5a2 receptor in HMDM assessed as inhibition of C5a-induced induction of ERK1/2 phosphorylation in HMDM at 100 uM pre-incubated for 30 mins before C5a addition and measured after 10 mins.
T2 sequence (P27361 whole entry, looked up): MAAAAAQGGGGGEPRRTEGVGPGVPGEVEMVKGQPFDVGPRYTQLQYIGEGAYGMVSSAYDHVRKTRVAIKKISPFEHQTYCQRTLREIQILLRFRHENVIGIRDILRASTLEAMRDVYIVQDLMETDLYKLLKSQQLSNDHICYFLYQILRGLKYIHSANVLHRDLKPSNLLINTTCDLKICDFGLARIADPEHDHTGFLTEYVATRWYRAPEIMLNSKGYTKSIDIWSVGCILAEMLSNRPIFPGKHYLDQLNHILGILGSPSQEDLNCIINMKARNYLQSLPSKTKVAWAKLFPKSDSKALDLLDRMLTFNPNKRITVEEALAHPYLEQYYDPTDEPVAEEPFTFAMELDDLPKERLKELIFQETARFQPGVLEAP
T2 sequence (P28482 whole entry, looked up): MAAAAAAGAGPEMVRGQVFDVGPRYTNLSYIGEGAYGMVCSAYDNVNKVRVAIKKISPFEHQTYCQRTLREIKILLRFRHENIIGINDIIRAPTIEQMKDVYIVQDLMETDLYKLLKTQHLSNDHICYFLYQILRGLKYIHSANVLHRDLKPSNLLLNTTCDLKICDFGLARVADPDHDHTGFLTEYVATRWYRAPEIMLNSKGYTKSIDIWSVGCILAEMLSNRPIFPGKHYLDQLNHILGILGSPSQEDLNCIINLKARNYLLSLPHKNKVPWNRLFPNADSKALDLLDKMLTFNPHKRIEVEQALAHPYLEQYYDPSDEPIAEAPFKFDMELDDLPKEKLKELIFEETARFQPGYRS
The target in assay [6] is T1, C5a anaphylatoxin chemotactic receptor 1 (Homo sapiens). The assay can be described thus: Agonist activity at C5a1 receptor (unknown origin) expressed in HEK293 cells assessed as induction of beta-arrestin-2 recruitment at 100 uM incubated for 1 hr by BRET assay. The assay is classed as cell-based.
Assay [7] concerns the target C5a anaphylatoxin chemotactic receptor 2 (Homo sapiens) (UniProt Q9P296). The assay can be described thus: Agonist activity at C5a2 receptor in HMDM assessed as inhibition of LPS-induced TNFalpha release at 100 uM in presence of C5a1 antagonist PMX53 by ELISA.
The target is the same in assay [8]. The assay can be described thus: Displacement of [125I]-C5a from C5a2 receptor (unknown origin) expressed in Flp-In CHO cell membranes at 100 uM incubated for 1 hr by microbeta scintillation counting assay.
Assay [9] shares this target. Briefly: Agonist activity at C5a2 receptor in LPS-induced IHMDM assessed as effect on […] release at 0.1 to 100 uM by ELISA.
Assay [10] shares this target. Briefly: Displacement of [125I]-C5a from C5a2 receptor (unknown origin) expressed in Flp-In CHO cell membranes incubated for 1 hr by microbeta scintillation counting assay.
For assay [11], the target named is T2, Mitogen-activated protein kinase; ERK1/ERK2 (Homo sapiens). The assay can be described thus: Induction of ERK1/2 phosphorylation in HMDM at 100 uM incubated for 30 mins. The assay is classed as protein assay.
Assay [12] concerns the target C5a anaphylatoxin chemotactic receptor 2 (Homo sapiens) (UniProt Q9P296). Briefly: Agonist activity at C5a2 receptor in HMDM assessed as inhibition of LPS-induced IL-6 release at 100 uM by ELISA.
The target is the same in assay [13]. The assay can be described thus: Agonist activity at C5a2 receptor in HMDM assessed as inhibition of LPS-induced TNFalpha release at 0.1 to 100 uM by ELISA.
For assay [14] the target is unchanged. Briefly: Partial agonist activity at C5a2 receptor (unknown origin) expressed in HEK293 cells assessed as induction of beta-arrestin-2 recruitment incubated for 1 hr by BRET assay relative to C5a. The format is cell-based.
Assay [15] shares this target. Briefly: Partial agonist activity at human C5a2 receptor assessed as induction of beta-arrestin-2 recruitment by DiscoverX Path Hunter kit based assay.
The subject of assay [16] is Mus musculus. Briefly: Inhibition of C5a-induced neutrophil mobilization in iv dosed wild type mouse. The format is functional, organism-based.
Assay [17] deals with Mus musculus. Briefly: Inhibition of C5a-induced neutrophil mobilization in iv dosed C5aR2 (-/-) mouse. The assay is classed as functional, organism-based.
Assay [18] concerns the target C5a anaphylatoxin chemotactic receptor 2 (Homo sapiens) (UniProt Q9P296). Briefly: Agonist activity at C5a2 receptor in HMDM assessed as inhibition of LPS-induced IL-6 release at 10 to 100 uM by ELISA.

On to Ac-LIRLWR-OH, for which the inhibition result in assay [1] and in assay [10] was “Dose-dependent effect” each time. In addition, the outcome in assay [2], in [4], in [6], in [9] and in assay [11] was inactive. Further, the Activity result in [3] is “Dose-dependent effect”; in [14] it was 52.9%. The inhibition result in assay [5], in assay [8] and in assay [12] was “Active” each time. Also, the inhibition result in [7] and in [13] was “inactive” in each case. Further, the outcome in [15] was Active.

As for Ac-RHYPYWR-OH, the inhibition entry in assay [1] and in assay [10] was “Dose-dependent effect” throughout. Moreover, the outcome in [2], in assay [4], in assay [6], in assay [9] and in assay [11] was inactive. The Activity result in assay [3] was “Dose-dependent effect”; in assay [14], 28.8%. In addition, the inhibition result in assay [5], in assay [16], in assay [8] and in [18] was “Active” each time. Also, the inhibition result in [7], in assay [17] and in assay [13] was “inactive” throughout. For the same substance, in [15], the outcome was Active.
